# In patent publication US20260001889A1, “COMPOSITIONS USEFUL FOR MODULATING SPLICING” (Skyhawk Therapeutics, Inc., priority 2022, published 2026):
# System: ATXN3-HiBiT protein
# Experiment: ATXN3 Total Protein Assay (Kelly-ATXN3-HiBiT luminescence)
# Format: cell-based
# Details: Kelly-ATXN3-HiBiT cells, 48 h after addition of compound
# Description: Example 36: ATXN3 Total Protein Assay
# To monitor ATXN3 protein levels by luminescence, a Kelly-ATXN3-HiBiT cell line with homozygous knock-in of HiBiT at the C-terminus of the endogenous ATXN3 gene was used (knock-in of the HiBiT-tag coding sequence SEQ ID NO. 14: 5′[…]3′ into exon 11 of ATXN3-position 1114 of ATXN3 RefSeq NM_004993.6). Manipulations of the Kelly-ATXN3-HiBiT cell line that result in downregulation of the ATXN3-HiBiT protein (through modulation of ATXN3-HiBiT pre-mRNA splicing) can be followed by monitoring the luminescence signal of the HiBiT tag using the Nano Glo HiBiT Lytic Detection System (Promega, #N3050). Kelly-ATXN3-HiBiT cells were maintained in RPMI 1640 w/Glutamax (Gibco, #61870010), 10% FBS (Sigma Aldrich, #F8687), 1% Penicillin/Streptomycin (Gibco, #15140-122) at 37° C., 5% CO2. To assess HiBiT-luminescence signal upon compound treatment, 2000 Kelly-ATXN3-HiBiT cells were seeded per well in 384 plate format. Compounds were added 24 h after seeding. ATXN3-HiBiT-luminescence signal was read out 48 h after addition of the compound using the Nano Glo HiBiT Lytic Detection System (Promega, #N3050) according to the manufacturer's instructions. To control for cell viability, an identically prepared sister plate was read out with the CellTiter-Glo® 2.0 Assay (Promega, #G9243) according to the manufacturer's instructions. Fold changes of ATXN3-HiBiT-luminescence and of CellTiter-Glo viability signals were calculated relative to a DMSO control condition.
row,SMILES,EC50 [µM]
1,"C[C@H](N)Cc1oc2c(NCc3ccc(C#N)cc3)cc(Cl)nc2c1Br [Compound 339, p-({2-[(S)-2-aminopropyl]-3-bromo-5-chloro-1-oxa-4-aza-7-indenylamino}methyl)benzonitrile]",10 to 40
2,"C[C@H](N)Cc1oc2c(NCc3ccc(F)cn3)cc(Cl)nc2c1Br [Compound 341, 2-[(S)-2-aminopropyl]-3-bromo-5-chloro-7-{[(5-fluoro-2-pyridyl)methyl]amino}-1-oxa-4-azaindene]",5 to 10
3,"C[C@H](N)Cc1oc2c(NCc3ccncc3F)cc(Cl)nc2c1Br [Compound 342, 2-[(S)-2-aminopropyl]-3-bromo-5-chloro-7-{[(3-fluoro-4-pyridyl)methyl]amino}-1-oxa-4-azaindene]",0.101 to 0.5
4,"COc1cc(CNc2cc(Cl)nc3c(Br)c(C[C@H](C)N)oc23)ccc1F [Compound 343, 2-[(S)-2-aminopropyl]-3-bromo-5-chloro-7-{[(4-fluoro-3-methoxyphenyl)methyl]amino}-1-oxa-4-azaindene]",0.501 to 5
5,"O=C(O)c1oc2c(NCc3cccs3)cc(Cl)nc2c1Br [Compound 347, 3-bromo-5-chloro-7-thenylamino-1-oxa-4-aza-2-indenecarboxylic acid]",10 to 40
6,"COc1cccc(CNc2cc(Cl)nc3c(Br)c(C[C@H](C)N)oc23)n1 [Compound 348, 2-[(S)-2-aminopropyl]-3-bromo-5-chloro-7-{[(6-methoxy-2-pyridyl)methyl]amino}-1-oxa-4-azaindene]",10 to 40
7,"C[C@H](N)Cc1oc2c(NCc3ccccc3OC(F)(F)F)cc(Cl)nc2c1Br [Compound 349, 2-[(S)-2-aminopropyl]-3-bromo-5-chloro-7-{[(o-trifluoromethoxyphenyl)methyl]amino}-1-oxa-4-azaindene]",10 to 40
8,"C[C@H](N)Cc1oc2c(NCc3ccc(F)c(F)c3F)cc(Cl)nc2c1Br [Compound 351, 2-[(S)-2-aminopropyl]-3-bromo-5-chloro-7-{[(2,3,4-trifluorophenyl)methyl]amino}-1-oxa-4-azaindene]",10 to 40
9,"CC(O)c1oc2c(NCc3cccs3)cc(Cl)nc2c1Br (stereo not drawn) [Compound 355, 1-(3-bromo-5-chloro-7-((thiophen-2-ylmethyl)amino)furo[3,2-b]pyridin-2-yl)ethan-1-ol]",5 to 10
10,"COC(C)c1oc2c(NCc3cccs3)cc(Cl)nc2c1Br (stereo not drawn) [Compound 356, 3-bromo-5-chloro-2-(1-methoxyethyl)-N-(thiophen-2-ylmethyl)furo[3,2-b]pyridin-7-amine]",10 to 40

# System: ATXN3 transcripts containing exon 4
# Experiment: ATXN3 Quantitative Splicing Assay (qPCR, E4E5 primers/probe)
# Format: cell-based
# Details: Homo sapiens, SK-N-MC cells, compounds for 24 h
# Experimental: Example 34: ATXN3 Quantitative Splicing Assay
# Human neuroblastoma SK-N-MC cells were plated in 384-well plates at 20,000 cells/well. Twenty-four hours after plating, cells were treated with compounds for 24 h at appropriate concentrations ranging from 30 μM to 0.6 nM (0.300 DMSO). Treated cells were lysed in 15 μL of lysis buffer, and cDNA was synthesized using the Fast Advanced Cells-to-Ct kit. Two […] of each cDNA was used in qPCR reactions to confirm the exon 4 skipped transcripts of ATXN3. A second set of primers/probe E4E5 was used to detect the transcripts containing exon 4. The third set of primers/probe E8E9 was used to detect total gene level of ATXN3. The qPCR reactions were prepared in 384-well plates in 10 μL volume, using TaqMan™ Fast Advanced Master Mix with primers and probes shown in the table below. Reactions were run in a Quant Studio 6 qPCR instrument with default settings.
# The primers and probes are listed below in Table 4.
row,IC50 [µM],SMILES
1,0.501 to 5,"N[C@H]1CCCC[C@H]1c1cc2nc(Cl)cc(NCc3cccs3)c2o1 (racemic) [Compound 363, rac-2-[(1R,2S)-2-aminocyclohexyl]-5-chloro-N-(thiophen-2-ylmethyl)furo[3,2-b]pyridin-7-amine]"
2,0.101 to 0.5,"N[C@H]1CC[C@@H]1c1oc2c(NCc3cccs3)cc(Cl)nc2c1Br (racemic) [Compound 367, 2-(2-aminocyclobutyl)-3-bromo-5-chloro-N-(thiophen-2-ylmethyl)furo[3,2-b]pyridin-7-amine]"
3,0.501 to 5,"N[C@@H]1CC[C@H]1c1oc2c(NCc3cccs3)cc(Cl)nc2c1Br (single isomer, unassigned) [Compound 290]"
4,0.101 to 0.5,"N[C@H]1CC[C@@H]1c1oc2c(NCc3cccs3)cc(Cl)nc2c1Br (single isomer, unassigned) [Compound 291]"
5,5 to 10,"N[C@H]1CC(F)(F)C[C@@H]1c1oc2c(NCc3cccs3)cc(Cl)nc2c1Br (single isomer, unassigned) [Compound 369]"
6,0.101 to 0.5,"N[C@@H]1CC(F)(F)C[C@H]1c1oc2c(NCc3cccs3)cc(Cl)nc2c1Br (single isomer, unassigned) [Compound 388]"
7,0.101 to 0.5,"C[C@H](F)[C@H](N)Cc1oc2c(NCc3cccs3)cc(C#N)nc2c1Cl [Compound 104, 2-[(2R,3S)-2-amino-3-fluorobutyl]-3-chloro-7-thenylamino-1-oxa-4-aza-5-indenecarbonitrile]"
8,1e-05 to 0.1,"N[C@H]1CCC[C@@H]1c1oc2c(NCc3cccs3)cc(Cl)nc2c1Br [Compound 170, 2-[(1S,2S)-2-aminocyclopentyl]-3-bromo-5-chloro-7-thenylamino-1-oxa-4-azaindene]"
9,0.501 to 5,"N[C@@H]1CCC[C@H]1c1oc2c(NCc3cccs3)cc(Cl)nc2c1Br [Compound 172, 2-[(1R,2R)-2-aminocyclopentyl]-3-bromo-5-chloro-7-thenylamino-1-oxa-4-azaindene]"
10,1e-05 to 0.1,"N[C@H]1CCCC[C@@H]1c1oc2c(NCc3cccs3)cc(Cl)nc2c1Br [Compound 174, 2-[(1,2S)-2-aminocyclohexyl]-3-bromo-5-chloro-7-thenylamino-1-oxa-4-azaindene]"
11,0.501 to 5,"N[C@@H]1CCCC[C@H]1c1oc2c(NCc3cccs3)cc(Cl)nc2c1Br [Compound 176, 2-[(1R,2R)-2-aminocyclohexyl]-3-bromo-5-chloro-7-thenylamino-1-oxa-4-azaindene]"
12,0.101 to 0.5,"C#Cc1c(C[C@@H](N)[C@H](C)F)oc2c(NCc3cccs3)c(F)c(Cl)nc12 [Compound 278, 2-[(2R,3S)-2-amino-3-fluorobutyl]-5-chloro-3-ethynyl-6-fluoro-7-thenylamino-1-oxa-4-azaindene]"
13,5 to 10,"COCc1oc2c(NCc3cccs3)cc(Cl)nc2c1Br [Compound 360, 3-bromo-5-chloro-2-(methoxymethyl)-N-(thiophen-2-ylmethyl)furo[3,2-b]pyridin-7-amine]"
14,0.501 to 5,"Clc1cc(NCc2cccs2)c2oc(OCC3CCC3)c(Br)c2n1 [Compound 368, 3-bromo-5-chloro-2-(cyclobutylmethoxy)-N-(thiophen-2-ylmethyl)furo[3,2-b]pyridin-7-amine]"
15,0.101 to 0.5,"N[C@H]1COC[C@@H]1c1oc2c(NCc3cccs3)cc(Cl)nc2c1Br [Compound 373, 2-[(3R,4R)-4-aminotetrahydro-3-furyl]-3-bromo-5-chloro-7-thenylamino-1-oxa-4-azaindene]"

row,SMILES,IC50 [µM]
1,"C[C@H](N)Cc1oc2c(NCc3ccco3)cc(Cl)nc2c1C(=O)N(C)C [Compound 357, 2-[(2S)-2-aminopropyl]-5-chloro-7-[(furan-2-ylmethyl)amino]-N,N-dimethylfuro[3,2-b]pyridine-3-carboxamide]",10 to 40
2,"CNC(=O)c1c(C[C@H](C)N)oc2c(NCc3ccco3)cc(Cl)nc12 [Compound 358, 2-[(2S)-2-aminopropyl]-5-chloro-7-[(furan-2-ylmethyl)amino]-N-methylfuro[3,2-b]pyridine-3-carboxamide]",10 to 40
3,"COc1cccc(CNc2cc(Cl)nc3c(Br)c(C[C@H](C)N)oc23)c1F [Compound 359, 2-[(S)-2-aminopropyl]-3-bromo-5-chloro-7-{[(2-fluoro-3-methoxyphenyl)methyl]amino}-1-oxa-4-azaindene]",10 to 40
4,"COc1cc(CNc2cc(Cl)nc3c(Br)c(C[C@H](C)N)oc23)ccn1 [Compound 361, 2-[(S)-2-aminopropyl]-3-bromo-5-chloro-7-{[(2-methoxy-4-pyridyl)methyl]amino}-1-oxa-4-azaindene]",10 to 40
5,"COc1cccc(CNc2cc(Cl)nc3c(Br)c(C[C@H](C)N)oc23)c1 [Compound 362, 2-[(S)-2-aminopropyl]-3-bromo-5-chloro-7-{[(m-methoxyphenyl)methyl]amino}-1-oxa-4-azaindene]",5 to 10
6,"C[C@H](N)Cc1oc2c(NCc3ccco3)cc(Cl)nc2c1-c1nnco1 [Compound 364, 2-[(2S)-2-aminopropyl]-5-chloro-N-(furan-2-ylmethyl)-3-(1,3,4-oxadiazol-2-yl)furo[3,2-b]pyridin-7-amine]",0.501 to 5
7,"C[C@H](N)Cc1oc2c(NCc3ccco3)cc(Cl)nc2c1-c1ncc(C(N)=O)o1 [Compound 365, 2-{2-[(2S)-2-aminopropyl]-5-chloro-7-[(furan-2-ylmethyl)amino]furo[3,2-b]pyridin-3-yl}-1,3-oxazole-5-carboxamide]",10 to 40
8,"C[C@H](N)Cc1oc2c(NCc3ccco3)cc(Cl)nc2c1-c1ncc(C#N)o1 [Compound 366, 2-{2-[(2S)-2-aminopropyl]-5-chloro-7-[(furan-2-ylmethyl)amino]furo[3,2-b]pyridin-3-yl}-1,3-oxazole-5-carbonitrile]",10 to 40
